Test results published in patent publication US10577638B2, “Systems, devices, and methods for microbial detection and identification, and antimicrobial susceptibility testing” (Board of Regents, The University of Texas System, priority 2013, dated 2020).

System: CA-MRSA clinical isolates and a wild type CA-MRSA strain
Assay: AST-Chip antibiotic susceptibility test of CA-MRSA clinical isolates (FUN-1 fluorescence)
Format: cell-based, Staphylococcus aureus
Conditions: isolates A32, K2 and B2 compared with isolates I27, D1, M2 and WT, 8 μg/ml, incubated 16 h
Experimental: The key steps in chip fabrication are described in below (these methods are also described in Srinivasan et al., which is incorporated by reference herein). The fabrication included three steps: (i) modification of the surface of glass slides with poly(styrene-co-maleic anhydride) (PSMA); (ii) printing spots of a 30 nl mixture of poly-l-lysine and barium chloride to create a “tie-layer” using a robotic microarrayer (Microsys, Digilab); and (iii) printing a 30 nl mixture of 0.5% alginate solution, optimized-growth medium and antimicrobial agents at various concentrations on top of the tie-layer. […]
The AST-Chip was benchmarked by evaluating the antimicrobial-susceptibility of a wild type strain of Staphylococcus aureus (UAMS-1) and CA-MRSA (USA 300) against methicillin. […] After incubation, the cell density at different spots was quantified using FUN-1, a vital fluorescent dye with excitation and emission wavelength that is compatible with a standard microarray scanner and facilitating faster read out (FIG. 6A). The fluorescence intensity of control (no drug) and sodium hypochlorite-treated dead biofilms were set at 100% and 0%, respectively. The inhibitory effects of the antimicrobial agents were determined by the reduction in fluorescence intensity in comparison to the controls (FIG. 6B). […]

CN[C@H](CC(C)C)C(=O)N[C@H]1C(=O)N[C@@H](CC(N)=O)C(=O)N[C@H]2C(=O)N[C@H]3C(=O)N[C@H](C(=O)N[C@H](C(=O)O)c4cc(O)cc(O)c4-c4cc3ccc4O)[C@H](O)c3ccc(c(Cl)c3)Oc3cc2cc(c3O[C@@H]2O[C@H](CO)[C@@H](O)[C@H](O)[C@H]2O[C@H]2C[C@](C)(N)[C@H](O)[C@H](C)O2)Oc2ccc(cc2Cl)[C@H]1O [vancomycin]
relative susceptibility of isolates to the drug: less susceptible
